US9499509B2, “Dihydrochalcone derivatives and their use as antibiotic agents” (UNIVERSITÉ DU QUÉBEC À CHICOUTIMI, priority 2012, dated 2016)
Read-outs that look alike come from different tables or passages of the source.

Experiments:
S. aureus = assay: Antibiotic assay (resazurin, Example 1), S. aureus strains of Table 3; type: cell-based, Staphylococcus aureus; conditions: for IC50: read-out: IC50
Text: (§1) Bacteria Strain. […] The MRSA were obtained as further described below.
(§2) Antibiotic agents. Cyprofloxacin and erythromycin were provided by Sigma-Aldrich. Gentamicin sulfate and vancomycin hydrochloride were provided by Calbiochem.

Streptococcus pneumoniae = assay: Antibiotic assay (resazurin, Example 1), Streptococcus pneumoniae; type: cell-based; conditions: for IC50: read-out: IC50
Description: as §1, §2
(§3) Five additional strains were tested: Streptococcus pneumoniae, Streptococcus agalactiae, Streptococcus pyogenes, Enterococcus faecalis and Corynebacterium jeikeium.

Enterococcus faecalis = assay: Antibiotic assay (resazurin, Example 1), Enterococcus faecalis; type: cell-based; conditions: for IC50: read-out: IC50
Description: as §1, §2, §3

Corynebacterium jeikeium = assay: Antibiotic assay (resazurin, Example 1), Corynebacterium jeikeium; type: cell-based; conditions: Coryne. jeikeium 14139
Description: as §1, §2, §3

Streptococcus pyogenes = assay: Antibiotic assay (resazurin, Example 1), Streptococcus pyogenes; type: cell-based; conditions: for IC50: read-out: IC50
Description: as §1, §2, §3

Streptococcus agalactiae = assay: Antibiotic assay (resazurin, Example 1), Streptococcus agalactiae; type: cell-based; conditions: for IC50: read-out: IC50
Description: as §1, §2, §3

[1] = test system: S. aureus wild type strain (ATCC25923); assay: Antibiotic assay of extracts and fractions (resazurin, Example 6), S. aureus wild type; type: cell-based, Staphylococcus aureus; conditions: S. aureus WT
Text: (§4) Antibiotic agents. Gentamicin sulfate was provided by Calbiochem.

E. coli (ATCC25922) = assay: Antibiotic assay of extracts and fractions (resazurin, Example 6), E. coli; type: cell-based
Text: as §4

MRSAs (1, 2 and 3) = assay: Antibiotic assay of extracts and fractions (resazurin, Example 6), MRSA 1, 2 and 3; type: cell-based, Staphylococcus aureus
Text: as §4

S. epidermidis = assay: Antibiotic assay (resazurin, Example 1), S. epidermidis strains
Description: The antibiotic assays were performed in 96-well plates (BD Falcon). The bacteria strains were inoculated in Nutrient Broth (BD) for the gram negative bacteria and Tryptic soy broth (BD) with 10% of defibrinated sheep blood (PML microbiological) for gram positive strain. All bacteria strains were dosed by spectrophotometry at 660 nm where 1 D.O=2×10^8 bacteria/mL. All bacteria were plated in their respective broth at a concentration of 450 000 bacteria/mL.
Compounds I, II and III were diluted in methanol and the above-noted antibiotic agents were diluted in water. The solvent concentration was 0.25%, which was not toxic for the bacteria. Compounds I, II and III and the above-noted antibiotic agents were tested at 8 different concentrations.
Each well contained: 100 μL of bacteria, 50 μL of the compounds tested (compound I, II, III or the above-noted antibiotic agent) and 50 μL of a 4% resazurin (Sigma) solution. The plates were incubated at 37° C. for 5 h. The fluorescence was read using a Fluoroskan Ascent™ FL (thermo) using an excitation wavelength of 530 nm and an emission wavelength of 590 nm.
Two different strains of Staphylococcus were tested, namely the S. epidermidis and the S. aureus strains.

With Gentamicin sulfate [reference compound] the “Minimum Inhibitory Concentration (MIC)” value (S. aureus; S. aureus 14094) was “(0.04) μM”, the IC50 (S. aureus; S. aureus 14094) was < 6 nM and the “Minimum Inhibitory Concentration (MIC)” value (S. aureus; S. aureus 14108) was “(0.05) μM”. For the same substance, the IC50 (S. aureus; S. aureus 14108) was 16 ± 3 nM, the “Minimum Inhibitory Concentration (MIC)” value (S. aureus; S. aureus 14118) was “(0.02) μM” and the IC50 (S. aureus; S. aureus 14118) was 8 ± 1 nM. The “Minimum Inhibitory Concentration (MIC)” value (S. aureus; S. aureus 14154) was “(0.04) μM”, the IC50 (S. aureus; S. aureus 14154) was < 16 nM and the “Minimum Inhibitory Concentration (MIC)” value (Streptococcus pneumoniae; Strep. pneumoniae 14070) was “(>20) μM”. For the same substance, the IC50 (Streptococcus pneumoniae; Strep. pneumoniae 14070) was 4000 ± 2000 nM, the “Minimum Inhibitory Concentration (MIC)” value (Streptococcus pneumoniae; Strep. pneumoniae 14112) was “(>20) μM” and the IC50 (Streptococcus pneumoniae; Strep. pneumoniae 14112) was > 20000 nM. For the same substance, the “Minimum Inhibitory Concentration (MIC)” value (Streptococcus pneumoniae; Strep. pneumoniae 14138) was “(>20) μM”, the IC50 (Streptococcus pneumoniae; Strep. pneumoniae 14138) was > 20000 nM and the “Minimum Inhibitory Concentration (MIC)” value (Streptococcus pneumoniae; Strep. pneumoniae 14144) was “(>20) μM”. The IC50 (Streptococcus pneumoniae; Strep. pneumoniae 14144) was > 20000 nM, the “Minimum Inhibitory Concentration (MIC)” value (Streptococcus pneumoniae; Strep. pneumoniae 14148) was “(>20) μM” and the IC50 (Streptococcus pneumoniae; Strep. pneumoniae 14148) was > 20000 nM. For the same substance, the “Minimum Inhibitory Concentration (MIC)” value (Enterococcus faecalis; Ent. Faecalis 14078) was “(>20) μM”, the IC50 (Enterococcus faecalis; Ent. Faecalis 14078) was 11000 ± 1000 nM and the “Minimum Inhibitory Concentration (MIC)” value (Enterococcus faecalis; Ent. Faecalis 14115) was “(>20) μM”. The IC50 (Enterococcus faecalis; Ent. Faecalis 14115) was > 20000 nM, the “Minimum Inhibitory Concentration (MIC)” value (Corynebacterium jeikeium) was “(9.1) μM” and the IC50 (Corynebacterium jeikeium; read-out: IC50) was 920 ± 70 nM. For the same substance, the “Minimum Inhibitory Concentration (MIC)” value (Streptococcus pyogenes; Strep. pyogenes 14149) was “(>20) μM”, the IC50 (Streptococcus pyogenes; Strep. pyogenes 14149) was > 20000 nM and the “Minimum Inhibitory Concentration (MIC)” value (Streptococcus pyogenes; Strep. pyogenes 14152) was “(>20) μM”. The IC50 (Streptococcus pyogenes; Strep. pyogenes 14152) was > 20000 nM, the “Minimum Inhibitory Concentration (MIC)” value (Streptococcus agalactiae; Strep. agalactiae 14150) was “(>20) μM” and the IC50 (Streptococcus agalactiae; Strep. agalactiae 14150) was > 20000 nM. The “Minimum Inhibitory Concentration (MIC)” value (Streptococcus agalactiae; Strep. agalactiae 14151) was “(>20) μM”, the IC50 (Streptococcus agalactiae; Strep. agalactiae 14151) was > 20000 nM and the “Minimum Inhibitory Concentration (MIC)” value (Streptococcus agalactiae; Strep. agalactiae 14153) was “(>20) μM”. For the same substance, the IC50 (Streptococcus agalactiae; Strep. agalactiae 14153) was > 20000 nM, the IC50 [1] was <5 ng/mL and the MIC [1] was <5 ng/mL. For the same substance, the IC50 (E. coli (ATCC25922)) was 9 ± 1 ng/mL, the MIC (E. coli (ATCC25922)) was 19 ng/mL and the IC50 (MRSAs (1, 2 and 3); MRSA 1) was <5 ng/mL. The MIC (MRSAs (1, 2 and 3); MRSA 1) was <5 ng/mL, the IC50 (MRSAs (1, 2 and 3); MRSA 2) was <5 ng/mL and the MIC (MRSAs (1, 2 and 3); MRSA 2) was <5 ng/mL. The IC50 (MRSAs (1, 2 and 3); MRSA 3) was 6 ± 0.4 ng/mL, the MIC (MRSAs (1, 2 and 3); MRSA 3) was 19 ng/mL and the IC50 (S. epidermidis; S. epidermidis 14069) was < 6 nM. For the same substance, the “Minimum Inhibitory Concentration (MIC)” value (S. epidermidis; S. epidermidis 14069) was “(2.51) μM”, the IC50 (S. epidermidis; S. epidermidis 14085) was < 6 nM and the “Minimum Inhibitory Concentration (MIC)” value (S. epidermidis; S. epidermidis 14085) was “(1.19) μM”. The IC50 (S. epidermidis; S. epidermidis 14093) was < 6 nM, the “Minimum Inhibitory Concentration (MIC)” value (S. epidermidis; S. epidermidis 14093) was “(1.25) μM” and the IC50 (S. epidermidis; S. epidermidis 14134) was 130 ± 10 nM. For the same substance, the “Minimum Inhibitory Concentration (MIC)” value (S. epidermidis; S. epidermidis 14134) was “(0.8) μM”, the IC50 (S. epidermidis; S. epidermidis 14143) was 200 ± 30 nM and the “Minimum Inhibitory Concentration (MIC)” value (S. epidermidis; S. epidermidis 14143) was “(>2) μM”.
